One may read the AUC(0-inf) as the area under the concentration-time curve extrapolated to infinity. Read a high AUC(0-inf) as high exposure. The Kd is the equilibrium constant for the complex coming apart. Usually IC50 stands for the point on the concentration scale where inhibition reaches its midpoint. The term half-life denotes the time in which the quantity being followed falls by half. Read a low half-life as rapid decline.

Series [1] in a line: Toxicity in C57BL/6J mouse implanted with mouse MC38 cells assessed as change in HGB count at 40 to 160 mg/kg, IG qd for 7 days. Format: organism-based. As to conditions: in vivo, po, 168 h, dose 40-160 mg/kg, time 7 day.
Series [2] can be described thus: AUC (0 to infinity) in Sprague-Dawley rat at 1 mg/kg, iv measured for 24 hrs by LC-MS/MS analysis. It is filed as ADME, organism-based. As to conditions: in vivo.
A short description of series [3]: Toxicity in C57BL/6J mouse implanted with mouse MC38 cells assessed as change in liver index at 5 to 20 mg/kg, ip qd for 13 days. It is filed as organism-based. As to conditions: in vivo, 312 h, dose 5-20 mg/kg, time 13 day.
Series [4] can be described thus: Binding affinity to human PD-L1 assessed as dissociation constant by SPR analysis. Background: SPR reads the build-up and loss of mass on a sensor chip optically.
Series [5] can be described thus: Toxicity in C57BL/6J mouse implanted with mouse MC38 cells assessed as change in ALT level at 40 to 160 mg/kg, IG qd for 7 days. It is filed as organism-based. As to conditions: in vivo, po, 168 h, dose 40-160 mg/kg, time 7 day.
A short description of series [6]: Cytotoxicity against human PBMC cells assessed as inhibition of cell viability by CCK8 assay. Format: toxicity, cell-based. (In general: Tetrazolium assays rely on reduction of a dye to a coloured formazan, in cell work by metabolically active cells.)
Series [7] can be described thus: Toxicity in C57BL/6J mouse implanted with mouse MC38 cells assessed as change in kidney index at 5 to 20 mg/kg, ip qd for 13 days. Format: organism-based. As to conditions: in vivo, 312 h, dose 5-20 mg/kg, time 13 day.
Series [8] has as its system Mus musculus. Description: Restoration of immune function in C57BL/6J mouse implanted with mouse MC38 cells assessed as increase in serum IFN-gamma level administered intraperitoneally once daily for 13 days by ELISA. Format: functional, organism-based. As to conditions: dose 5-20 mg/kg, route ip, time 13.0 day. Background: An ELISA detects its analyte on a solid surface through an enzyme-linked reagent.

Series [9] can be described thus: Toxicity in C57BL/6J mouse implanted with mouse MC38 cells assessed as change in HCT count at 40 to 160 mg/kg, IG qd for 7 days. As to conditions: in vivo, po, 168 h, dose 40-160 mg/kg, time 7 day. It is filed as organism-based.
A short description of series [10]: Half life in Sprague-Dawley rat at 10 mg/kg, ip measured for 24 hrs by LC-MS/MS analysis. It is filed as ADME, organism-based. As to conditions: in vivo.

With `C[C@H](N)C(=O)N1Cc2ccc(-c3cccc(-c4ccc5c(c4)OCCO5)c3Cl)cc2C1.Cl`, the Activity result in series [1] was “Non-toxic”; in series [3], “Non-toxic”; in series [5], “Non-toxic”; in [7], “Non-toxic”; in series [8], “Dose-dependent-effect”; in [9], “Non-toxic”. The same compound came in with an AUC(0-inf) in [2] of 191 ng·h/mL. Further, in series [4], the Kd turned out to be 230 nM. For the same compound, the IC50 in series [6] was more than 5000 nM. The half-life in [10] was 4.02 h.

Values taken from ChEMBL document CHEMBL6109137, “Design, Synthesis, Evaluation, and SAR of 5-Phenylisoindoline Derivatives, a Potent Class of Small-Molecule Inhibitors Targeting the Programmed Cell Death-1/Programmed Cell Death-Ligand 1 (PD-1/PD-L1) Interaction” (J Med Chem, 2025).
